According to PMC12389534, “Unlocking Therapeutic Potential of Novel Thieno-Oxazepine Hybrids as Multi-Target Inhibitors of AChE/BChE and Evaluation Against Alzheimer’s Disease: In Vivo, In Vitro, Histopathological, and Docking Studies” (Pharmaceuticals, 2025):

How the values were obtained:
[1] = test system: AlCl3-induced AD rat model; assay: Morris water maze (MWM) test in AlCl3-induced AD rats; type: in vivo; conditions: for Learning (s): escape latency; for Learning (s) / Memory (s): mean ± SE, n = 6; for Memory (s): time spent in target quadrant
Method: All procedures were conducted conforming to the applicable National Institutes of Health standards and regulations for the Care and Use of Laboratory Animals. In this experiment, adult male Dawley rats in excellent condition weighing between 300 and 320 g were used. The animals were acquired from the Nile Company for Pharmaceuticals and Chemical Industries (Cairo, Egypt). They were placed in a controlled laboratory setting with unrestricted access to water, a temperature range of 24 to 26 °C, and 12 h a light–dark cycle. Three rats per cage were housed in polycarbonate cages that were individually packed with paper and encased with stainless steel wire.
Spatial learning and memory were inspected using the MWM test. Tap water was poured into a 150 cm diameter by 60 cm high circular water tank until it reached a depth of 30 cm (25 ± 2 °C). To make the water […], non-toxic white dye was applied. The east, west, north, and south quadrants of the pool were essentially separated into four equal sections. At a specific spot in the middle of one quadrant, an escape platform with a diameter of 10 cm was submerged 2 cm below the water’s surface. The platform stood in the exact same quadrant throughout the testing. The rats’ swimming route was recorded by a video camera situated above the pool. From a designated spot in each quadrant, each rat was submerged in the water with its back turned to the pool wall, and it was then left to swim to the platform. The rats received training sessions every day for three days in a row, with four trials conducted in each session. Before the next trial began, the animals were kept a maximum of 60 s to explore the hidden platform. After that, they were permitted to relax on it for 20 s. The rat was positioned gently on the platform and allowed 20 s to rest if it took longer than 60 s to locate it. The time taken to find the platform, or the escape latency, was documented. In order to do a probing test on the fourth day, the platform was detached away, and the rats were given 60 s to swim liberally. The time spent in the assigned quadrant was counted.

TLR4 = TLR4 mRNA expression (RT-qPCR); type: in vivo, rat; set-up: reduction of TLR4 mRNA expression: concentration or dose not given beside the values; conditions: AlCl3-induced AD rats; for TLR4: mRNA expression level, mean ± SE, n = 6
Method: (§1) The brain tissues of the rats were removed and rigorously washed in isotonic saline 24 h after they were euthanized following the last behavioral test. For histological investigation, four brains per group were preserved for the whole night in 10% neutral buffered formalin. The remaining six brains were split into two sections each. In order to create a 10% homogenate (w/v), the first component was instantaneously homogenized using an ice-cold solution that included 300 mM sucrose and 50 mM Tris-HCl (pH 7.4). The homogenate was centrifuged at 1800× g for 10 min at 4 °C for biochemical tests, and the supernatant was thereafter kept at −20 °C. The second portion was set aside for use in RT-PCR analysis at −80 °C [94].
(§2) See Supplementary Information.

Amyloid-β = assay: Brain amyloid-β level (ELISA); type: in vivo, rat; set-up: reduction of β-amyloid levels: concentration or dose not given beside the values; conditions: AlCl3-induced AD rats; for Amyloid-β (ng/g Tissue): brain, mean ± SE, n = 6
Method: as §1, §2

IL-1β = assay: Brain IL-1β level (ELISA); type: in vivo, rat; set-up: reduction in IL-1β levels: concentration or dose not given beside the values; conditions: AlCl3-induced AD rats; for IL-β (pg/g Tissue): mean ± SE, n = 6
Method: as §1, with “[94]. […]” for “[94].”

Bcl-2 = Bcl-2 gene expression (RT-qPCR); type: in vivo, rat; conditions: AlCl3-induced AD rats; for Bcl-2: gene expression, mean ± SE, n = 6
Method: as §1, §2

GSK3β = GSK3β gene expression (RT-qPCR); type: in vivo, rat; conditions: AlCl3-induced AD rats; for GSK3β: gene expression, mean ± SE, n = 6
Method: as §1, §2

SOD = assay: Brain SOD activity (colorimetric); type: in vivo, rat; conditions: brain tissue, AlCl3-induced AD rats; mean ± SE, n = 6
Method: as §1
The SOD enzyme activity was estimated using the Marklund et al. method, which is founded on the enzyme’s capacity to decrease the nitro blue tetrazolium dye at a wavelength of 540 nm. To evaluate the TAC, a colorimetric approach was employed to estimate the amount of hydrogen peroxide that remains after 3,5-dichloro-2-hydroxybenzene sulphonate is converted to a colored product at 660 nm.

AChE = type: in vivo; set-up: reduction in AChE levels: concentration or dose not given beside the values; conditions: AlCl3-induced AD rats; for AChE (ng/g Tissue): brain tissue, mean ± SE, n = 6; for reduction in AChE levels: brain
DA = assay: Brain DA level (fluorometric); type: in vivo, rat; conditions: AlCl3-induced AD rats; for DA (ng/g Tissue): brain tissue, mean ± SE, n = 6
Method: as §1
Brain monoamine levels were promptly assessed following the rats’ euthanasia to prevent changes in the substance’s concentration. Dopamine (DA), norepinephrine (NE), and serotonin (5-HT) fluorometric tests were conducted on brain tissue homogenate using the Ciarlone method. […] The concentrations were articulated as nanograms per gram of fresh tissue using the fluorescence of reference solutions [95].

Wnt3a = assay: Brain Wnt3a level; type: in vivo, rat; conditions: AlCl3-induced AD rats; for Wnt3a (ng/g Tissue): mean ± SE, n = 6
Method: as §1, §2

NLRP3 = NLRP3 mRNA expression (RT-qPCR); type: in vivo, rat; set-up: reduction of NLRP3 mRNA expression: concentration or dose not given beside the values; conditions: AlCl3-induced AD rats; for NLRP3: mRNA expression level, mean ± SE, n = 6
Method: as §1, §2

β-catenin = assay: Brain β-catenin level; type: in vivo, rat; conditions: AlCl3-induced AD rats; for β-Catenin (ng/L): mean ± SE, n = 6
Method: as §1, §2

HO-1 = HO-1 mRNA expression (RT-qPCR); type: in vivo, rat; conditions: AlCl3-induced AD rats; for HO-1: mRNA expression in brain tissue, mean ± SE, n = 6
Method: as §1, §2

BAX = BAX gene expression (RT-qPCR); type: in vivo, rat; conditions: gene expression; AlCl3-induced AD rats; mean ± SE, n = 6
Method: as §1, §2

TNF-α = assay: Brain TNF-α level (ELISA); type: in vivo, rat; conditions: AlCl3-induced AD rats; for TNF-α (pg/g Tissue): mean ± SE, n = 6
Method: as §1, with “[94]. […]” for “[94].”

BACE1 = assay: Brain BACE1 level (ELISA); type: in vivo, rat; set-up: reduction of BACE1 levels: concentration or dose not given beside the values; conditions: AlCl3-induced AD rats; for BACE1 (ng/mL): mean ± SE, n = 6
Method: as §1, with “[94]. […]” for “[94].”

SMILES: N#Cc1ccc(N2CC(=O)Oc3sc4c(c3C2=O)CCCCC4)cc1 [Compound 13, 4-(2,5-Dioxo-2,3,7,8,9,10-hexahydro-6H-cyclohepta[4,5]thieno[3,2-f][1,4]oxazepin-4(5H)-yl)benzonitrile]
- increase in quadrant residence time [1]: about 4.1 times
- reduction in escape latency [1]: 71.2%
- Learning (s) [1]: 14.17 ± 0.95 ^abc s
- Memory (s) [1]: 40.50 ± 2.62 ^abc s
- reduction of TLR4 mRNA expression (TLR4): 57.5%
- TLR4 (TLR4): 4.09 ± 0.27 ^abc
- reduction of β-amyloid levels (Amyloid-β): 67.6%
- Amyloid-β (ng/g Tissue) (Amyloid-β): 9.04 ± 0.9 ^abc ng/g Tissue
- reduction in IL-1β levels (IL-1β): 61.3%
- IL-β (pg/g Tissue) (IL-1β): 45.79 ± 1.34 ^abc pg/g Tissue
- upregulation of Bcl-2 gene expression (Bcl-2): 6.5 fold
- Bcl-2 (Bcl-2): 0.79 ± 0.020 ^abc
- GSK3β (GSK3β): 3.63 ± 0.04 ^abc
- SOD(U/g) (SOD): 2.53 ± 0.25 ^abc U/g
- AChE (ng/g Tissue) (AChE): 24.35 ± 0.8 ^abc ng/g Tissue
- reduction in AChE levels (AChE): 63.8%
- elevation of DA levels (DA): 4.1 fold
- DA (ng/g Tissue) (DA): 48.65 ± 2.3 ^abc ng/g Tissue
- elevation of Wnt3a levels (Wnt3a): 7 fold
- Wnt3a (ng/g Tissue) (Wnt3a): 0.84 ± 0.01 ^abc ng/g Tissue
- reduction of NLRP3 mRNA expression (NLRP3): 73.2%
- NLRP3 (NLRP3): 2.86 ± 0.11 ^abc
- elevation of β-catenin levels (β-catenin): 7.7 fold
- β-Catenin (ng/L) (β-catenin): 11.67 ± 0.13 ^abc ng/L
- elevation of HO-1 mRNA expression (HO-1): 6.2 fold
- HO-1 (HO-1): 0.75 ± 0.010 ^abc
- BAX (BAX): 5.80 ± 0.120 ^abc
- decline in TNF-α levels (TNF-α): 70.2%
- TNF-α (pg/g Tissue) (TNF-α): 52.38 ± 0.59 ^abc pg/g Tissue
- reduction of BACE1 levels (BACE1): 61.7%
- BACE1 (ng/mL) (BACE1): 11.35 ± 0.31 ^abc ng/mL

SMILES: CCOc1ccc(N2CC(=O)Oc3sc4c(c3C2=O)CCCCC4)cc1 [Compound 14, 4-(4-Ethoxyphenyl)-3,4,7,8,9,10-hexahydro-6H-cyclohepta[4,5]thieno[3,2-f][1,4]oxazepine-2,5-dione]
- Learning (s) [1]: 21 ± 1.13 ^abc s
- Memory (s) [1]: 29.50 ± 2 ^abc s
- reduction of TLR4 mRNA expression (TLR4): 62.6%
- TLR4 (TLR4): 3.60 ± 0.12 ^abc
- reduction of β-amyloid levels (Amyloid-β): 58.4%
- Amyloid-β (ng/g Tissue) (Amyloid-β): 11.66 ± 0.17 ^abc ng/g Tissue
- reduction in IL-1β levels (IL-1β): 49.3%
- IL-β (pg/g Tissue) (IL-1β): 59.92 ± 0.98 ^abc pg/g Tissue
- upregulation of Bcl-2 gene expression (Bcl-2): 5.8 fold
- Bcl-2 (Bcl-2): 0.70 ± 0.004 ^abc
- GSK3β (GSK3β): 3.13 ± 0.07 ^abc
- SOD(U/g) (SOD): 2.38 ± 0.78 ^abc U/g
- AChE (ng/g Tissue) (AChE): 19.4 ± 0.39 ^abc ng/g Tissue
- reduction in AChE levels (AChE): 71.2%
- elevation of DA levels (DA): 4.3 fold
- DA (ng/g Tissue) (DA): 51.88 ± 2.66 ^abc ng/g Tissue
- elevation of Wnt3a levels (Wnt3a): 4 fold
- Wnt3a (ng/g Tissue) (Wnt3a): 0.66 ± 0.02 ^abc ng/g Tissue
- reduction of NLRP3 mRNA expression (NLRP3): 63.2%
- NLRP3 (NLRP3): 3.92 ± 0.04 ^abc
- elevation of β-catenin levels (β-catenin): 5.3 fold
- β-Catenin (ng/L) (β-catenin): 8.4 ± 0.09 ^abc ng/L
- elevation of HO-1 mRNA expression (HO-1): 5.3 fold
- HO-1 (HO-1): 0.64 ± 0.009 ^abc
- BAX (BAX): 5.49 ± 0.100 ^abc
- decline in TNF-α levels (TNF-α): 58.4%
- TNF-α (pg/g Tissue) (TNF-α): 73.21 ± 0.58 ^abc pg/g Tissue
- reduction of BACE1 levels (BACE1): 43.8%
- BACE1 (ng/mL) (BACE1): 16.66 ± 0.38 ^abc ng/mL

SMILES: O=C1CN(c2ccc(O)cc2)C(=O)c2c(sc3c2CCCCC3)O1 [Compound 15, 4-(4-Hydroxyphenyl)-3,4,7,8,9,10-hexahydro-6H-cyclohepta[4,5]thieno[3,2-f][1,4]oxa-zepine-2,5-dione]
- increase in quadrant residence time [1]: ~4.3 times
- reduction in escape latency [1]: 61%
- Learning (s) [1]: 19.17 ± 1.01 ^abc s
- Memory (s) [1]: 42.50 ± 1.06 ^abc s
- reduction of TLR4 mRNA expression (TLR4): 52.5%
- TLR4 (TLR4): 4.57 ± 0.09 ^abc
- reduction of β-amyloid levels (Amyloid-β): 73.2%
- Amyloid-β (ng/g Tissue) (Amyloid-β): 7.46 ± 0.9 ^abc ng/g Tissue
- reduction in IL-1β levels (IL-1β): 61.1%
- IL-β (pg/g Tissue) (IL-1β): 45.66 ± 1.03 ^abc pg/g Tissue
- upregulation of Bcl-2 gene expression (Bcl-2): 7.1 fold
- Bcl-2 (Bcl-2): 0.86 ± 0.020 ^abc
- reduction of GSK3β gene expression (GSK3β): 53.7%
- GSK3β (GSK3β): 4.72 ± 0.05 ^abc
- SOD(U/g) (SOD): 2.56 ± 0.54 ^abc U/g
- AChE (ng/g Tissue) (AChE): 25.73 ± 0.37 ^abc ng/g Tissue
- reduction in AChE levels (AChE): 61.8%
- elevation of DA levels (DA): 3.8 fold
- DA (ng/g Tissue) (DA): 44.92 ± 2.85 ^abc ng/g Tissue
- elevation of Wnt3a levels (Wnt3a): 7.3 fold
- Wnt3a (ng/g Tissue) (Wnt3a): 0.88 ± 0.01 ^abc ng/g Tissue
- reduction of NLRP3 mRNA expression (NLRP3): 68.5%
- NLRP3 (NLRP3): 3.36 ± 0.12 ^abc
- elevation of β-catenin levels (β-catenin): 8.8 fold
- β-Catenin (ng/L) (β-catenin): 13.86 ± 0.11 ^abc ng/L
- elevation of HO-1 mRNA expression (HO-1): 6.7 fold
- HO-1 (HO-1): 0.82 ± 0.005 ^abc
- BAX (BAX): 4.47 ± 0.040 ^abc
- decline in TNF-α levels (TNF-α): 74.6%
- TNF-α (pg/g Tissue) (TNF-α): 44.6 ± 0.6 ^abc pg/g Tissue
- reduction of BACE1 levels (BACE1): 64.6%
- BACE1 (ng/mL) (BACE1): 10.50 ± 0.2 ^abc ng/mL
